Seven compounds from patent US9682929B2, “Metalloprotease inhibitors, methods for producing same, and therapeutics uses thereof” (Centre National de la Recherche Scientifique-CNRS, priority 2013, dated 2017) can be followed below.

The target in one assay is T1, gelatinase MMP-9 (Homo sapiens, UniProt P14780).
T1 construct: purchased Anaspec, USA
The assay can be described thus: Test for enzymatic inhibition of MMP-9 (colorimetric, thiopeptide substrate/DTNB). It counts as biochemical. As to conditions: purified human enzyme; for IC50: 1 h preincubation, 150 μM substrate, read-out: IC50 MMP9; for Ki: read-out: Ki MMP9. On the procedure: (§1) Protocols of the Tests for Enzymatic Inhibition of MMP-9 and MMP-12
(§2) The enzymatic tests for screening compounds 1 to 7 were carried out in solution on two purified human enzymes: the gelatinase MMP-9 (Anaspec, USA) and the metalloelastase MMP-12 (Anaspec, USA).
(§3) The principle is based on the cleavage, by the MMP-9 or MMP-12 enzyme, of a chromogenic substrate: the thiopeptide (Ac-Pro-Leu-Gly-[2-mercapto-4-methylpentanoyl]-Leu-Gly-OC2H5) (Enzo Life Sciences, USA).
(§4) The hydrolysis of this thiopeptide produces a sulfhydryl group which reacts with Ellman's reagent: 5,5′-dithiobis(2-nitrobenzoic acid) (DTNB) to form 2-nitro-5-thiobenzoic acid (TNB), which is detected by its absorbance at 412 nm
(§5) The tests are carried out in the buffer 50 mM Hepes, 10 mM CaCl2, 0.5% Brij35, 1 mM DTNB, pH 7.0 containing the purified MMP-9 and MMP-12 enzymes diluted to the final concentration of 0.8 μg/ml.
(§6) After preincubation of the enzymes (1 h at ambient temperature in the dark) with or without the products tested (minimum of four doses serially diluted one-in-ten), the cleavage reactions are initiated by adding 150 μM (final concentration) of substrate in a total final volume of 100 μl (96-well plate format).
(§7) The plates containing the reactions are read in a microplate reader (Multiskan Ascent, ThermoElectron, France) in order to continuously measure the absorbance and to record values every […] for 3 h. Each condition is carried out in triplicate.
(§8) The concentration which inhibits 50% of the reaction (IC50) is determined from curves representing the absorbance (optical density) of the final reaction product (TNB) as a function of the doses tested. Each experiment is carried out at least twice.

The next assay addresses T2, metalloelastase MMP-12 (Homo sapiens, UniProt P39900).
T2 construct: purchased Anaspec, USA
The experiment in a line: Test for enzymatic inhibition of MMP-12 (colorimetric, thiopeptide substrate/DTNB). As to conditions: purified human enzyme; for IC50: 1 h preincubation, 150 μM substrate, read-out: IC50 MMP12; for Ki: read-out: Ki MMP12. The format is biochemical. On the procedure: as §1, §2, §3, §4, §5, §6, §7, §8

Structures are written as SMILES.

T2 sequence (P39900 106-470): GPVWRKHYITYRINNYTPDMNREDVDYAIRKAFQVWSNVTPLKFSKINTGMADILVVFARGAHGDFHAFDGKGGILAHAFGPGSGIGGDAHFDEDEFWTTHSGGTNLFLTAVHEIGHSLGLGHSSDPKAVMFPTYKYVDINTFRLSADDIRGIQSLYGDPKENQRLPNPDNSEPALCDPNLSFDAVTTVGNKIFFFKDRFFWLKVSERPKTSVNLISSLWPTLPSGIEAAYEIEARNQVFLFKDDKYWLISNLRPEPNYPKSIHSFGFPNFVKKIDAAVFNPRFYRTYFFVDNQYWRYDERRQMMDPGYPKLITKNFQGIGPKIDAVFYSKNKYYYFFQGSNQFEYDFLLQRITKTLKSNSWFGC
T1 sequence (P14780 94-707): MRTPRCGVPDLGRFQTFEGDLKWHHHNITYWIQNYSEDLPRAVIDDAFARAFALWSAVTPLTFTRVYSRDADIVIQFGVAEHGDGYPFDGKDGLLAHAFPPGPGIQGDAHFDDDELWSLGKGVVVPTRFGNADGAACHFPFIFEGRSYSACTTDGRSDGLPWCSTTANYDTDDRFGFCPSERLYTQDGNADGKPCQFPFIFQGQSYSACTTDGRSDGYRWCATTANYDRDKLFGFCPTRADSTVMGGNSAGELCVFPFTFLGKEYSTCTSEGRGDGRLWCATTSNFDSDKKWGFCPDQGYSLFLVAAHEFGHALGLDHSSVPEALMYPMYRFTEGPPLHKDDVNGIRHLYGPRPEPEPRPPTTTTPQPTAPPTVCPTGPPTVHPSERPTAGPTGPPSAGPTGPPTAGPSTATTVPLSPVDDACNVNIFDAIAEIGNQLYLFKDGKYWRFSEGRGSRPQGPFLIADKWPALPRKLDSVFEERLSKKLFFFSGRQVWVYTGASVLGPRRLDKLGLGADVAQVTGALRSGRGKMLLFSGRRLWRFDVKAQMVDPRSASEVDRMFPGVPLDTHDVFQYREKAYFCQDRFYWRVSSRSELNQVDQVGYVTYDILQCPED

Broadly, the IC50 is the concentration at which inhibition is half-maximal. The term Ki denotes the equilibrium dissociation constant of an inhibitor or competing ligand from its target. With `C=C[C@H](C(=O)N[C@@H](Cc1ccccc1)C(=O)NC1CCCCC1)[C@@H](C)O` [Compound 1, (S)—N—((S)-1-(cyclohexylamino)-1-oxo-3-phenylpropan-2-yl)-2-((R)-1-hydroxyethyl)but-3-enamide], the IC50 came out at 18.1 µM at gelatinase MMP-9 and 19.5 µM at metalloelastase MMP-12. Moreover, the Ki was found to be 8.95 µM on gelatinase MMP-9 and 9.95 µM on metalloelastase MMP-12.

Consider `C=C[C@H](C(=O)N[C@@H](Cc1ccccc1)C(=O)NC1CCCCC1)[C@H](O)c1ccc(-c2ccccc2)cc1` [Compound 2, (S)-2-((S)-biphenyl-4-yl(hydroxy)methyl)-N—((S)-1-(cyclohexylamino)-1-oxo-3-phenylpropan-2-yl)but-3-enamide], for which, at gelatinase MMP-9, the IC50 is 126 µM and the Ki was found to be 62.2 µM. Moreover, on metalloelastase MMP-12, the IC50 is 20 µM and the Ki stood at 10.2 µM.

With `C=C[C@H](C(=O)N[C@@H](Cc1ccccc1)C(=O)NC1CCCCC1)[C@H](O)c1cc(OCc2ccc(OC)cc2)n(-c2ccccc2)n1` [Compound 3, (S)—N—((S)-1-(cyclohexylamino)-1-oxo-3-phenylpropan-2-yl)-2-((S)-hydroxy(5-(4-methoxybenzyloxy)-1-phenyl-1H-pyrazol-3-yl)methyl)but-3-enamide], at gelatinase MMP-9, the IC50 is 5 µM and the Ki worked out at 2.47 µM. On metalloelastase MMP-12, the IC50 is 7.23 µM and the Ki was 3.68 µM.

Turning to `C=C[C@H](C(=O)N[C@@H](Cc1ccccc1)C(=O)O)[C@H](O)c1cc(OCc2ccc(OC)cc2)n(-c2ccccc2)n1` [Compound 4, (S)-2-((S)-2-((S)-hydroxy-(5-(4-methoxybenzyloxy)-1-phenyl-1H-pyrazol-3-yl)methyl)but-3-enamido)-3-phenylpropanoic acid], on gelatinase MMP-9, the IC50 was determined as 259 µM and the Ki is 128 µM. For the same compound, on metalloelastase MMP-12, the IC50 stood at 20.2 µM and the Ki was determined as 10.3 µM.

As to `C=C[C@H](C(=O)N[C@@H](Cc1ccccc1)C(=O)NO)[C@H](O)c1cc(OCc2ccc(OC)cc2)n(-c2ccccc2)n1` [Compound 5, (S)-2-((S)-hydroxy-(5-(4-methoxybenzyloxy)-1-phenyl-1H-pyrazol-3-yl)methyl)-N—((S)-1-(hydroxyamino)-1-oxo-3-phenylpropan-2-yl)but-3-enamide], on gelatinase MMP-9, the IC50 was found to be 19.8 µM and the Ki worked out at 9.78 µM. In addition, on metalloelastase MMP-12, the IC50 was determined as 22.3 µM and the Ki was determined as 11.4 µM.

With `C=C[C@H](C(=O)N[C@@H](CC(=O)O)C(=O)O)[C@H](O)c1cc(OCc2ccc(OC)cc2)n(-c2ccccc2)n1` [Compound 6, (S)-2-((S)-2-((S)-hydroxy-(5-(4-methoxybenzyloxy)-1-phenyl-1H-pyrazol-3-yl)methyl)but-3-enamido)succinic acid], on gelatinase MMP-9, the IC50 is 13.1 µM and the Ki was 6.47 µM. In addition, at metalloelastase MMP-12, the IC50 is 6.3 µM and the Ki amounted to 3.21 µM.

As to `C=C[C@H](C(=O)N[C@@H](CCSC)C(=O)O)[C@H](O)CCCC` [Compound 7, (S)-2-((2S,3R)-3-hydroxy-2-vinylheptanamido)-4-(methylthio)butanoic acid], on gelatinase MMP-9, the IC50 came to 330 µM and the Ki was 163 µM. In addition, on metalloelastase MMP-12, the IC50 amounted to 78.3 µM and the Ki turned out to be 39.9 µM.
